Assay [1] concerns HCV replicon in Huh-7 luc/neo cells. In words: Suppression of HCV replicon replication by conditioned media from compound-treated PBMC. Format: cell-based, HCV type 1 b. To be noted: Hepatitis C virus, Huh-7; read-out: PBMC-HUH7_EC50. In short, it runs like this: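 Readout is firefly luciferase from an HCV genotype 1b NS3-NS5B bicistronic replicon in Huh-7 cells, measured 24 h after adding conditioned medium. That medium came from overnight culture of compound-treated PBMC (2×10^5/well, human AB serum, at least two donors). Interferon α-2a was the reference.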
In general terms: A replicon is a self-replicating genome or part of one, used to study replication in cells.

Assay [2] has as its system human TLR7 mutant sequence comprising a deletion in the second leucine-rich repeat. In words: TLR7 cellular NFκB-luc reporter assay, mutant TLR7 with deletion in the second leucine-rich repeat. In kind it is cell-based. Details: unit not given here. To be noted: lowest effective concentration, TLR7 mutant with deletion in second leucine-rich repeat. Summed up: (§1)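 HEK293 cells transiently co-transfected with CMV-driven mutant TLR7 or TLR8 plasmid plus NFκB-luc reporter, cultured 48 h at 37 °C, then exposed to compound for 6 h at 37 °C, 5% CO2. Luciferase luminescence measured; dose-response curves from quadruplicates.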

Assay [3] has as its target T1, human TLR8 (wild type sequence) (Homo sapiens, UniProt Q9NR97).
T1 construct: expressed in transfected cells; host or cells: HEK293
T1 sequence (Q9NR97 27-1041): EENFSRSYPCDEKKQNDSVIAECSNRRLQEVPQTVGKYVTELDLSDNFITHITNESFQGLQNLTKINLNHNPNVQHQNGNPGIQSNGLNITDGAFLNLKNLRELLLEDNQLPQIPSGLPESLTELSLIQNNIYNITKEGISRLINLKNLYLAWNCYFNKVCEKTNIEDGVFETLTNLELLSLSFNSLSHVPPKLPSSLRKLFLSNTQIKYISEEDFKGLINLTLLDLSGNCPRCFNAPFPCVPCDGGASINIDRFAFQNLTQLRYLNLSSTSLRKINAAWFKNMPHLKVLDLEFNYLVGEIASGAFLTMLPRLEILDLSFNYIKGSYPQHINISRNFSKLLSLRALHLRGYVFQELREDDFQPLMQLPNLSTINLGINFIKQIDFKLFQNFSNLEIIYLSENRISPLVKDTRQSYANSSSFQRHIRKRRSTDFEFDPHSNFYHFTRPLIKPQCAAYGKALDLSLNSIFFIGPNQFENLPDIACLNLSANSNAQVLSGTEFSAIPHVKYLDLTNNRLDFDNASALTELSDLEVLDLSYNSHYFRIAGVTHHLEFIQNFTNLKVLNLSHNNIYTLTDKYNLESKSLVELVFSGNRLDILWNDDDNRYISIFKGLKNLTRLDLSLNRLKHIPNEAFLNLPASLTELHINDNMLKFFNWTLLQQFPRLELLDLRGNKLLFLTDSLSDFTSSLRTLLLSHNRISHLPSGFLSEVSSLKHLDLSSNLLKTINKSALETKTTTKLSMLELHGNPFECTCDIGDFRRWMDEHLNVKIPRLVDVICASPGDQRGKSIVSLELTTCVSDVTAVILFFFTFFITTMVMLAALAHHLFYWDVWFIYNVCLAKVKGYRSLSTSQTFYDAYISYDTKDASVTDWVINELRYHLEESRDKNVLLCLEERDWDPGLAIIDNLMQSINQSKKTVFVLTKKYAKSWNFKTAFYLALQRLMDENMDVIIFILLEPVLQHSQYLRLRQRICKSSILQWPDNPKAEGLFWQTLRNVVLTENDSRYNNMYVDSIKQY
Put plainly: TLR8 cellular NFκB-luc reporter assay, wild type TLR8. In kind it is cell-based. Details: unit not given here. Particulars: lowest effective concentration, wild type TLR8 (compounds 1-73). In short, it runs like this: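 Transfected HEK293 cells expressing wild type or second leucine-rich repeat-deleted TLR7 or TLR8 together with an NFκB-luciferase reporter are treated with compound for 6 hours. Activation is measured by luciferase, and LEC is the lowest concentration exceeding the assay standard deviation at least two fold.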
In general terms: In a reporter assay the amount or activity of a reporter protein is the signal.

Assay [4] concerns human TLR8 mutant sequence comprising a deletion in the second leucine-rich repeat. Put plainly: TLR8 cellular NFκB-luc reporter assay, mutant TLR8 with deletion in the second leucine-rich repeat. Format: cell-based. On the set-up: unit not given here. To be noted: lowest effective concentration, TLR8 mutant with deletion in second leucine-rich repeat. Summed up: as §1

As to `CCCCNc1nc(N)ncc1OC` [Compound 4], the EC50 in assay [1] turned out to be 1.14 µM. This compound came in with a TLR7-dIRR2_LEC in assay [2] of 1.17. For the same compound, the TLR8-wt_LEC in assay [3] is given as 2.56. The compound further yielded a TLR8-dIRR2_LEC in assay [4] of 1.10.
Turning to `CCCCNc1nc(N)ncc1OCC(C)C` [Compound 31], in assay [1], the EC50 stood at 10.4 µM. The TLR7-dIRR2_LEC in assay [2] is listed as 5.27. In assay [3], this compound gave a TLR8-wt_LEC of 17.53. In addition, the TLR8-dIRR2_LEC in assay [4] is given as 6.46.
Take `CCCCCOc1cnc(N)nc1NCCCC` [Compound 32]: the EC50 in assay [1] was 1.06 µM. The compound further registered a TLR7-dIRR2_LEC in assay [2] of 1.35. Besides, the TLR8-wt_LEC in assay [3] is listed as 9.97. Moreover, the TLR8-dIRR2_LEC in assay [4] worked out at 4.43.
As to `CCCCCNc1nc(N)ncc1Oc1ccccc1OC` [Compound 38], the EC50 in assay [1] came to 11.3 µM. The TLR7-dIRR2_LEC in assay [2] was determined as 2.46. In assay [3], the TLR8-wt_LEC is >50. The compound further came in with a TLR8-dIRR2_LEC in assay [4] of 22.88.
As to `CCCCCNc1nc(N)ncc1OC` [Compound 56], in assay [1], the EC50 turned out to be 0.8 µM. Moreover, the TLR7-dIRR2_LEC in assay [2] is reported as 0.84. This compound also came in with a TLR8-wt_LEC in assay [3] of 5.55. The compound also showed a TLR8-dIRR2_LEC in assay [4] of 1.47.
As for `CCCCNc1nc(N)ncc1OCc1ccc(-c2ccccc2)cc1` [Compound 58], the EC50 in assay [1] is 2.99 µM. In assay [2], this compound had a TLR7-dIRR2_LEC of 0.99. The compound further had a TLR8-wt_LEC in assay [3] of 3.84. Also, in assay [4], the TLR8-dIRR2_LEC was found to be 2.17.
`CCCCNc1nc(N)ncc1OCC` [Compound 60]: the EC50 in assay [1] was found to be 1.91 µM. This compound also had a TLR7-dIRR2_LEC in assay [2] of 1.38. The compound also displayed a TLR8-wt_LEC in assay [3] of 2.08. The same compound yielded a TLR8-dIRR2_LEC in assay [4] of 0.65.
On to `CCCCCNc1nc(N)ncc1OCC` [Compound 63], for which, in assay [1], the EC50 stood at 2.69 µM. In addition, the TLR7-dIRR2_LEC in assay [2] was 1.79. Moreover, the TLR8-wt_LEC in assay [3] was determined as 6.35. In addition, the TLR8-dIRR2_LEC in assay [4] came out at 1.94.
The corresponding values for `CCCCNc1nc(N)ncc1Oc1ccccc1OC` [Compound 64] are 4.29 µM, 2.03, 18.43 and 7.65.
In the case of `CCCCCCNc1nc(N)ncc1OCC` [Compound 70], the EC50 in assay [1] was > 23.8 µM. The TLR7-dIRR2_LEC in assay [2] was 4.96. The TLR8-wt_LEC in assay [3] was >24.59. Moreover, the TLR8-dIRR2_LEC in assay [4] is on record as >24.59.

For the origin of these results see US11541050B2, “Pyrimidine derivatives for the treatment of viral infections” (JANSSEN SCIENCES IRELAND UC, priority 2011, dated 2023).
